Data taken from patent US20170050957A1, “4-AMINO-6-(HETEROCYCLIC)PICOLINATES AND 6-AMINO-2-(HETEROCYCLIC)PYRIMIDINE-4-CARBOXYLATES AND THEIR USE AS HERBICIDES” (Dow AgroSciences LLC, priority 2013, published 2017).
Read-outs that look alike come from different tables or passages of the source.

Legend:
[1] = test system: Key Broadleaf Weed and Crop Species; assay: Post-emergent Test II herbicidal activity (Table 15); format: in vivo; details: post-emergence, 336 h, 14 d; for pest or weed control at 35 g/ha: 35 g ai/ha; for pest or weed control at 70 g/ha: 70 g ai/ha; for pest or weed control at 140 g/ha: 140 g ai/ha
In short: (§1)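 Plants at first-second true leaf stage, grown 7-21 d in greenhouse (~15 h photoperiod, 23-29 °C day), were track-sprayed at 187 L/ha with compound in acetone/DMSO/water/isopropanol/crop oil/Triton X-155 at a high rate plus 1/2× to 1/16× dilutions. Injury scored visually after 14 d versus untreated plants, 0 (none) to 100% (complete kill).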

[2] = test system: Key Grass and Sedge Weeds as well as Grass Crops; assay: Post-emergent Test II herbicidal activity (Table 16); format: in vivo; details: post-emergence, 336 h, 14 d; for pest or weed control at 35 g/ha: 35 g ai/ha; for pest or weed control at 70 g/ha: 70 g ai/ha; for pest or weed control at 140 g/ha: 140 g ai/ha
In short: as §1

[3] = Abutilon theophrasti, velvetleaf (Abutilon theophrasti), read-out: Visual Growth Reduction (%) 14 Days After Application, ABUTH
[4] = Amaranthus retroflexus, redroot pigweed (Amaranthus retroflexus), read-out: Visual Growth Reduction (%) 14 Days After Application, AMARE
[5] = Brassica napus, oilseed rape, canola (Brassica napus), read-out: Visual Growth Reduction (%) 14 Days After Application, BRSNN
[6] = Chenopodium album, lambsquarters (Chenopodium album), read-out: Visual Growth Reduction (%) 14 Days After Application, CHEAL
[7] = Euphorbia heterophylla, wild poinsettia (Euphorbia heterophylla), read-out: Visual Growth Reduction (%) 14 Days After Application, EPHHL
[8] = Helianthus annuus, sunflower (Helianthus annuus), read-out: Visual Growth Reduction (%) 14 Days After Application, HELAN
[9] = Cyperus esculentus, yellow nutsedge (Cyperus esculentus), read-out: Visual Growth Reduction (%) 14 Days After Application, CYPES
[10] = Echinochloa crus-galli, barnyardgrass (Echinochloa crus-galli), read-out: Visual Growth Reduction (%) 14 Days After Application, ECHCG
[11] = Oryza sativa, rice (Oryza sativa), read-out: Visual Growth Reduction (%) 14 Days After Application, ORYSA
[12] = Setaria faberi, giant foxtail (Setaria faberi), read-out: Visual Growth Reduction (%) 14 Days After Application, SETFA
[13] = Triticum aestivum, wheat, spring (Triticum aestivum), read-out: Visual Growth Reduction (%) 14 Days After Application, TRZAS
[14] = Zea mays, maize, corn (Zea mays), read-out: Visual Growth Reduction (%) 14 Days After Application, ZEAMX

SMILES	pest or weed control at 35 g/ha [1, 3]	pest or weed control at 70 g/ha [1, 3]	pest or weed control at 140 g/ha [1, 3]	pest or weed control at 35 g/ha [1, 4]	pest or weed control at 70 g/ha [1, 4]	pest or weed control at 140 g/ha [1, 4]	pest or weed control at 35 g/ha [1, 5]	pest or weed control at 70 g/ha [1, 5]	pest or weed control at 140 g/ha [1, 5]	pest or weed control at 35 g/ha [1, 6]	pest or weed control at 70 g/ha [1, 6]	pest or weed control at 140 g/ha [1, 6]	pest or weed control at 35 g/ha [1, 7]	pest or weed control at 70 g/ha [1, 7]	pest or weed control at 140 g/ha [1, 7]	pest or weed control at 35 g/ha [1, 8]	pest or weed control at 70 g/ha [1, 8]	pest or weed control at 140 g/ha [1, 8]	pest or weed control at 35 g/ha [2, 9]	pest or weed control at 70 g/ha [2, 9]	other results
COC(=O)c1nc(-c2ccc3cc[nH]c3c2F)cc(N)c1Cl [Compound 1.23, Methyl 4-amino-3-chloro-6-(7-fluoro-1H-indol-6-yl)picolinate]	95 to 100%	95 to 100%	95 to 100%	95 to 100%	95 to 100%	95 to 100%	60 to 74%	75 to 84%	85 to 94%	95 to 100%	95 to 100%	95 to 100%	95 to 100%	95 to 100%	95 to 100%	60 to 74%	75 to 84%	85 to 94%	0 to 29%	0 to 29%	pest or weed control at 140 g/ha [2, 9]: 0 to 29%; pest or weed control at 35 g/ha [2, 10]: 0 to 29%; pest or weed control at 70 g/ha [2, 10]: 0 to 29%; pest or weed control at 140 g/ha [2, 10]: 60 to 74%; pest or weed control at 35 g/ha [2, 11]: 0 to 29%; pest or weed control at 70 g/ha [2, 11]: 0 to 29%; pest or weed control at 140 g/ha [2, 11]: 0 to 29%; pest or weed control at 35 g/ha [2, 12]: 0 to 29%; pest or weed control at 70 g/ha [2, 12]: 0 to 29%; pest or weed control at 140 g/ha [2, 12]: 60 to 74%; pest or weed control at 35 g/ha [2, 13]: 0 to 29%; pest or weed control at 70 g/ha [2, 13]: 0 to 29%; pest or weed control at 140 g/ha [2, 13]: 30 to 44%; pest or weed control at 35 g/ha [2, 14]: 0 to 29%; pest or weed control at 70 g/ha [2, 14]: 0 to 29%; pest or weed control at 140 g/ha [2, 14]: 0 to 29%
Nc1cc(-c2ccc3cc[nH]c3c2F)nc(C(=O)O)c1Cl [Compound 1.24]	85 to 94%	95 to 100%	95 to 100%	95 to 100%	95 to 100%	95 to 100%	85 to 94%	45 to 59%	95 to 100%	85 to 94%	95 to 100%	95 to 100%	95 to 100%	95 to 100%	95 to 100%	60 to 74%	75 to 84%	85 to 94%	0 to 29%	0 to 29%	pest or weed control at 140 g/ha [2, 9]: 0 to 29%; pest or weed control at 35 g/ha [2, 10]: 0 to 29%; pest or weed control at 70 g/ha [2, 10]: 0 to 29%; pest or weed control at 140 g/ha [2, 10]: 0 to 29%; pest or weed control at 35 g/ha [2, 11]: 0 to 29%; pest or weed control at 70 g/ha [2, 11]: 0 to 29%; pest or weed control at 140 g/ha [2, 11]: 0 to 29%; pest or weed control at 35 g/ha [2, 12]: 0 to 29%; pest or weed control at 70 g/ha [2, 12]: 45 to 59%; pest or weed control at 140 g/ha [2, 12]: 60 to 74%; pest or weed control at 35 g/ha [2, 13]: 0 to 29%; pest or weed control at 70 g/ha [2, 13]: 30 to 44%; pest or weed control at 140 g/ha [2, 13]: 45 to 59%; pest or weed control at 35 g/ha [2, 14]: 0 to 29%; pest or weed control at 70 g/ha [2, 14]: 0 to 29%; pest or weed control at 140 g/ha [2, 14]: 0 to 29%
COC(=O)c1nc(-c2cc3[nH]ccc3cc2F)cc(N)c1Cl [Compound 1.25]	0 to 29%	0 to 29%	30 to 44%	75 to 84%	85 to 94%	95 to 100%	60 to 74%	75 to 84%	85 to 94%	0 to 29%	60 to 74%	60 to 74%	0 to 29%	0 to 29%	30 to 44%	0 to 29%	0 to 29%	0 to 29%	0 to 29%	0 to 29%	pest or weed control at 140 g/ha [2, 9]: 0 to 29%; pest or weed control at 35 g/ha [2, 10]: 0 to 29%; pest or weed control at 70 g/ha [2, 10]: 0 to 29%; pest or weed control at 140 g/ha [2, 10]: 0 to 29%; pest or weed control at 35 g/ha [2, 11]: 0 to 29%; pest or weed control at 70 g/ha [2, 11]: 0 to 29%; pest or weed control at 140 g/ha [2, 11]: 0 to 29%; pest or weed control at 35 g/ha [2, 12]: 0 to 29%; pest or weed control at 70 g/ha [2, 12]: 0 to 29%; pest or weed control at 140 g/ha [2, 12]: 0 to 29%; pest or weed control at 35 g/ha [2, 13]: 0 to 29%; pest or weed control at 70 g/ha [2, 13]: 0 to 29%; pest or weed control at 140 g/ha [2, 13]: 0 to 29%; pest or weed control at 35 g/ha [2, 14]: 0 to 29%; pest or weed control at 70 g/ha [2, 14]: 0 to 29%; pest or weed control at 140 g/ha [2, 14]: 0 to 29%
